Measurements: patent US8455658B2, “Thiazole and thiadiazole compounds for inflammation and immune-related uses” (Synta Pharmaceuticals Corp., priority 2006, dated 2013)
Where a name gives a salt, the structure may show the parent alone.

These compounds were tested on IL-2 production (assay: Inhibition of IL-2 production in PHA-activated Jurkat cells (ELISA)). Settings: Homo sapiens, Jurkat, 20 h, PHA 2.5 μg/mL, IL-2 ELISA.
Type: cell-based
Description: Jurkat cells were placed in a 96 well plate (0.5 million cells per well in 1% FBS medium) then a test compound of this invention was added at different concentrations. After 10 minutes, the cells were activated with PHA (final concentration 2.5 μg/mL) and incubated for 20 hours at 37° C. under CO2. The final volume was 200 μL. Following incubation, the cells were centrifuged and the supernatants collected and stored at −70° C. prior to assaying for IL-2 production. A commercial ELISA kit (IL-2 Eli-pair, Diaclone Research, Besancon, France) was used to detect production of IL-2, from which dose response curves were obtained.

| SMILES | IC50 [nM] |
| --- | --- |
| Cc1cnccc1C(=O)Nc1nc(C(=O)O)c(-c2cccc(C(F)(F)F)c2)s1 [Compound 112, 2-(3-Methylisonicotinamido)-5-(3-(trifluoromethyl)phenyl)thiazole-4-carboxylic acid] | > 1000 |
| Cc1nc(-c2sc(NC(=O)c3c(F)cccc3F)nc2C)cs1 [Compound 114b, N-(2,4′-Dimethyl-4,5′-bithiazol-2′-yl)-2,6-difluorobenzamide] | > 1000 |
| Cc1nc(NC(=O)c2c(F)cccc2F)sc1-c1cc(Br)sc1Br [Compound 61, N-(5-(2,5-Dibromothiophen-3-yl)-4-methylthiazol-2-yl)-2,6-difluorobenzamide] | 200 to 500 |
| Cc1nc(C(=O)Nc2c(F)cccc2F)sc1-c1cc(C(F)(F)F)ccc1Cl [Compound 119, 5-(2-chloro-5-(trifluoromethyl)phenyl)-N-(2,6-difluorophenyl)-4-methylthiazole-2-carboxamide] | 200 to 500 |
| O=C(Nc1c(F)cccc1F)c1ncc(-c2cccc(-c3ncco3)c2)s1 [Compound 131, N-(2,6-difluorophenyl)-5-(3-(oxazol-2-yl)phenyl)thiazole-2-carboxamide] | 50 to 100 |
| Cc1nc(NC(=O)c2ccncc2F)sc1-c1cccc(C(F)(F)F)c1 [Compound 10, 3-Fluoro-N-[4-methyl-5-(3-trifluoromethyl-phenyl)-thiazol-2-yl]-isonicotinamide] | > 1000 |
| C=CCOc1ccc(C(F)(F)F)cc1-c1cnc(NC(=O)c2c(F)cccc2F)s1 [Compound 65, N-(5-(2-(Allyloxy)-5-(trifluoromethyl)phenyl)thiazol-2-yl)-2,6-difluorobenzamide] | > 1000 |
| Cc1ncccc1C(=O)Nc1nc(C)c(-c2cccc(C(F)(F)F)c2)s1 [Compound 51, 2-Methyl-N-(4-methyl-5-(3-(trifluoromethyl)phenyl)thiazol-2-yl)nicotinamide] | > 1000 |
| N#Cc1cccc(-c2cnc(NC(=O)c3c(F)cccc3F)s2)c1 [Compound 6, N-[5-(3-Cyano-phenyl)-thiazol-2-yl]-2,6-difluoro-benzamide] | > 1000 |
| Cc1nnsc1C(=O)Nc1nc(C)c(-c2cccc(C(F)(F)F)c2)s1 [Compound 12, 4-Methyl-[1,2,3]thiadiazole-5-carboxylic acid [4-methyl-5-(3-trifluoromethyl-phenyl)-thiazol-2-yl]-amide] | > 1000 |
| Cc1nc(NC(=O)c2c(F)cccc2F)sc1-c1ccncc1 [Compound 54, 2,6-Difluoro-N-(4-methyl-5-(pyridin-4-yl)thiazol-2-yl)benzamide hydrobromide] | > 1000 |
| O=C(Nc1c(F)cccc1F)c1cnc(-c2cc(-c3nccs3)ccc2Cl)s1 [Compound 125, 2-(2-chloro-5-(thiazol-2-yl)phenyl)-N-(2,6-difluorophenyl)thiazole-5-carboxamide] | 200 to 500 |
| Cc1nc(NC(=O)c2c(F)cccc2F)sc1-c1ccc2c(c1)OCO2 [Compound 57, N-(5-(Benzo[d][1,3]dioxol-5-yl)-4-methylthiazol-2-yl)-2,6-difluorobenzamide] | 200 to 500 |
| Cc1cnccc1NC(=O)c1ncc(-c2cc(-c3ncco3)ccc2C)s1 [Compound 132, 5-(2-methyl-5-(oxazol-2-yl)phenyl)-N-(3-methylpyridin-4-yl)thiazole-2-carboxamide] | > 1000 |
| O=C(Nc1nnc(-c2cc(C(F)(F)F)ccc2Cl)s1)c1c(F)cccc1F [Compound 44, N-[5-(2-Chloro-5-trifluoromethyl-phenyl)-[1,3,4]thiadiazol-2-yl]-2,6-difluoro-benzamide] | > 1000 |
| Cc1ccc(-c2nnco2)cc1-c1ncc(C(=O)Nc2c(F)cccc2F)s1 [Compound 128, N-(2,6-difluorophenyl)-2-(2-methyl-5-(1,3,4-oxadiazol-2-yl)phenyl)thiazole-5-carboxamide] | 200 to 500 |
| COc1ncc(Cl)cc1-c1ncc(C(=O)Nc2c(F)cccc2F)s1 [Compound 126, 2-(5-chloro-2-methoxypyridin-3-yl)-N-(2,6-difluorophenyl)thiazole-5-carboxamide] | > 1000 |

Now from value to compound:

| IC50 [nM] | SMILES |
| --- | --- |
| > 1000 | O=C(Nc1nc(CCl)c(-c2cccc(C(F)(F)F)c2)s1)c1c(F)cccc1F [Compound 70, N-(4-(Chloromethyl)-5-(3-(trifluoromethyl)phenyl)thiazol-2-yl)-2,6-difluorobenzamide] |
| 200 to 500 | N#Cc1nc(NC(=O)c2c(F)cccc2F)sc1-c1cccc(C(F)(F)F)c1 [Compound 73, N-(4-Cyano-5-(3-(trifluoromethyl)phenyl)thiazol-2-yl)-2,6-difluorobenzamide] |
| > 1000 | CCOC(CNC(=O)c1nc(NC(=O)c2c(F)cccc2F)sc1-c1cccc(C(F)(F)F)c1)OCC [Compound 98, N-(2,2-diethoxyethyl)-2-(2,6-difluorobenzamido)-5-(3-(trifluoromethyl)phenyl)thiazole-4-carboxamide] |
| 200 to 500 | Cc1nc(-c2nc(NC(=O)c3c(F)cccc3F)sc2-c2cccc(C(F)(F)F)c2)cs1 [Compound 86, 2,6-Difluoro-N-(2′-methyl-5-(3-(trifluoromethyl)phenyl)-4,4′-bithiazol-2-yl)benzamide] |
| < 30 | O=C(Nc1nc(-c2ccccn2)c(-c2cccc(C(F)(F)F)c2)s1)c1c(F)cccc1F [Compound 107, 2,6-Difluoro-N-(4-(pyridin-2-yl)-5-(3-(trifluoromethyl)phenyl)thiazol-2-yl)benzamide] |
| > 1000 | O=C(Nc1nc(C(O)c2ccccn2)c(-c2cccc(C(F)(F)F)c2)s1)c1c(F)cccc1F (stereo not drawn) [Compound 83, 2,6-difluoro-N-(4-(hydroxy(pyridin-2-yl)methyl)-5-(3-(trifluoromethyl)phenyl)thiazol-2-yl)benzamide] |
| 200 to 500 | Cc1noc(-c2nc(NC(=O)c3c(F)cccc3F)sc2-c2cccc(C(F)(F)F)c2)n1 [Compound 92, 2,6-difluoro-N-(4-(3-methyl-1,2,4-oxadiazol-5-yl)-5-(3-(trifluoromethyl)phenyl)thiazol-2-yl)benzamide] |
| > 1000 | COc1ccc(-c2nc(NC(=O)c3c(F)cccc3F)sc2-c2cccc(C(F)(F)F)c2)cc1OC [Compound 109, N-(4-(3,4-Dimethoxyphenyl)-5-(3-(trifluoromethyl)phenyl)thiazol-2-yl)-2,6-difluorobenzamide] |
| 100 to 200 | Cc1nc(NC(=O)c2c(F)cccc2F)sc1-c1cccc(C#N)c1 [Compound 13, N-[5-(3-Cyano-phenyl)-4-methyl-thiazol-2-yl]-2,6-difluoro-benzamide] |
| 50 to 100 | O=C(Nc1nc(C2CC2)c(-c2cccc(C(F)(F)F)c2)s1)c1c(F)cccc1F [Compound 52, N-(4-Cyclopropyl-5-(3-(trifluoromethyl)phenyl)thiazol-2-yl)-2,6-difluorobenzamide] |
| 50 to 100 | O=C(Nc1nc(-c2ncco2)c(-c2cccc(C(F)(F)F)c2)s1)c1c(F)cccc1F [Compound 91, 2,6-difluoro-N-(4-(oxazol-2-yl)-5-(3-(trifluoromethyl)phenyl)thiazol-2-yl)benzamide] |
| 200 to 500 | C=Cc1nc(NC(=O)c2c(F)cccc2F)sc1-c1cccc(C(F)(F)F)c1 [Compound 75, 2,6-Difluoro-N-(5-(3-(trifluoromethyl)phenyl)-4-vinylthiazol-2-yl)benzamide] |
| 50 to 100 | O=C(Nc1nc(-c2cnco2)c(-c2cccc(C(F)(F)F)c2)s1)c1c(F)cccc1F [Compound 76, 2,6-Difluoro-N-(4-(oxazol-5-yl)-5-(3-(trifluoromethyl)phenyl)thiazol-2-yl)benzamide] |
| 200 to 500 | O=C(Nc1nc(-c2cc[nH]n2)c(-c2cccc(C(F)(F)F)c2)s1)c1c(F)cccc1F [Compound 100, N-(4-(1H-Pyrazol-3-yl)-5-(3-(trifluoromethyl)phenyl)thiazol-2-yl)-2,6-difluorobenzamide] |
| > 1000 | Cc1nc(C)c(-c2nc(NC(=O)c3c(F)cccc3F)sc2-c2cccc(C(F)(F)F)c2)o1 [Compound 81, N-(4-(2,4-dimethyloxazol-5-yl)-5-(3-(trifluoromethyl)phenyl)thiazol-2-yl)-2,6-difluorobenzamide] |
| > 1000 | CN(C)c1ccc(-c2nc(NC(=O)c3c(F)cccc3F)sc2-c2cccc(C(F)(F)F)c2)cc1 [Compound 110, N-(4-(4-(Dimethylamino)phenyl)-5-(3-(trifluoromethyl)phenyl)thiazol-2-yl)-2,6-difluorobenzamide] |
| > 1000 | NC(=O)c1nc(NC(=O)c2c(F)cccc2F)sc1-c1cccc(C(F)(F)F)c1 [Compound 97, 2-(2,6-Difluorobenzamido)-5-(3-(trifluoromethyl)phenyl)thiazole-4-carboxamide] |
| 50 to 100 | O=C(Nc1ncc(-c2cc(C(F)(F)F)ccc2Cl)s1)c1c(F)cccc1F [Compound 4, N-[5-(2-Chloro-5-trifluoromethyl-phenyl)-thiazol-2-yl]-2,6-difluoro-benzamide] |
| > 1000 | CON(C)C(=O)c1nc(NC(=O)c2c(F)cccc2F)sc1-c1cccc(C(F)(F)F)c1 [Compound 93, 2-(2,6-difluorobenzamido)-N-methoxy-N-methyl-5-(3-(trifluoromethyl)phenyl)thiazole-4-carboxamide] |
| 50 to 100 | C=C(C)c1nc(NC(=O)c2c(F)cccc2F)sc1-c1cccc(C(F)(F)F)c1 [Compound 68a, 2,6-difluoro-N-(4-(prop-1-en-2-yl)-5-(3-(trifluoromethyl)phenyl)thiazol-2-yl)benzamide] |
| 100 to 200 | O=C(Nc1nc(-c2ccon2)c(-c2cccc(C(F)(F)F)c2)s1)c1c(F)cccc1F [Compound 106, 2,6-Difluoro-N-(4-(isoxazol-3-yl)-5-(3-(trifluoromethyl)phenyl)thiazol-2-yl)benzamide] |
| > 1000 | Cc1nc(-c2nc(NC(=O)c3c(F)cccc3F)sc2-c2cccc(C(F)(F)F)c2)c(C)s1 [Compound 95, N-(2′,5′-dimethyl-5-(3-(trifluoromethyl)phenyl)-4,4′-bithiazol-2-yl)-2,6-difluorobenzamide] |
